Results taken from patent publication US9676704B2, “Pesticidal compositions and processes related thereto” (Dow AgroSciences LLC, priority 2014, dated 2017).

Legend:
Beet Armyworm (BAW) = test: Bioassays on BAW, 128-well diet tray assay; format: in vivo; settings: Spodoptera exigua; for mortality at 50 µg/cm2: 168 h, 50 μg/cm^2 on artificial diet, second instar larvae, five to seven days, 25° C., read-out: BAW % Control (or Mortality) rating; for mortality at 0.05 µg/cm2: 0.05 μg/cm^2; for mortality at 0.05 µg/cm2 / mortality at 0.5 µg/cm2 / mortality at 5 µg/cm2: read-out: BAW Percent control (or mortality); for mortality at 0.5 µg/cm2: 0.5 μg/cm^2; for mortality at 5 µg/cm2: 5 μg/cm^2
Method: Bioassays on BAW were conducted using a 128-well diet tray assay. one to five second instar BAW larvae were placed in each well (3 mL) of the diet tray that had been previously filled with 1 mL of artificial diet to which 50 μg/cm^2 of the test compound (dissolved in 50 μL of 90:10 acetone-water mixture) had been applied (to each of eight wells) and then allowed to dry. Trays were covered with a clear self-adhesive cover, and held at 25° C., 14:10 light-dark for five to seven days. Percent mortality was recorded for the larvae in each well; activity in the eight wells was then averaged. The results are indicated in the tables entitled “Table ABC: Assay Results (F)”, “Table ABCD: Assay Results (C)”, and “Table ABCDE: Assay Results (P)” (See Table Section).
(§1) Bioassays on BAW and CL were conducted according to the procedures outlined in Example A: Bioassays on Beet Armyworm (“BAW”) and Cabbage Looper (“CL”) using the following concentrations: 5, 0.5, and 0.05 μg/cm^2.

Cabbage Looper (CL) = test: Bioassays on CL, 128-well diet tray assay; format: in vivo; settings: Trichoplusia ni; for mortality at 50 µg/cm2: 168 h, 50 μg/cm^2 on artificial diet, second instar larvae, five to seven days, 25° C., read-out: CL % Control (or Mortality) rating; for mortality at 0.05 µg/cm2: 0.05 μg/cm^2; for mortality at 0.05 µg/cm2 / mortality at 0.5 µg/cm2 / mortality at 5 µg/cm2: read-out: CL Percent control (or mortality); for mortality at 0.5 µg/cm2: 0.5 μg/cm^2; for mortality at 5 µg/cm2: 5 μg/cm^2
Method: Bioassays on CL were conducted using a 128-well diet tray assay. One to five second instar CL larvae were placed in each well (3 mL) of the diet tray that had been previously filled with 1 mL of artificial diet to which 50 μg/cm^2 of the test compound (dissolved in 50 μL of 90:10 acetone-water mixture) had been applied (to each of eight wells) and then allowed to dry. Trays were covered with a clear self-adhesive cover, and held at 25° C., 14:10 light-dark for five to seven days. Percent mortality was recorded for the larvae in each well; activity in the eight wells was then averaged. The results are indicated in the table entitled “Table ABC: Assay Results (F)”, “Table ABCD: Assay Results (C)”, and “Table ABCDE: Assay Results (P)” (See Table Section).
as §1

Structure (SMILES) | mortality at 50 µg/cm2 (Beet Armyworm (BAW)) [%] | mortality at 50 µg/cm2 (Cabbage Looper (CL)) [%] | mortality at 0.05 µg/cm2 (Beet Armyworm (BAW)) [%] | mortality at 0.5 µg/cm2 (Beet Armyworm (BAW)) [%] | mortality at 5 µg/cm2 (Beet Armyworm (BAW)) [%] | mortality at 0.05 µg/cm2 (Cabbage Looper (CL)) [%] | mortality at 0.5 µg/cm2 (Cabbage Looper (CL)) [%] | mortality at 5 µg/cm2 (Cabbage Looper (CL)) [%]
CNCCNC(=O)c1ccc(/C=C/C(c2cc(Cl)c(Cl)c(Cl)c2)C(F)(F)F)cc1C(F)(F)F (stereo not drawn) [Compound C115, (E)-N-(2-(methylamino)ethyl)-4-(4,4,4-trifluoro-3-(3,4,5-trichlorophenyl)but-1-en-1-yl)-2-(trifluoromethyl)benzamide] | 50 to 100 | 0 |  |  |  |  |  | 
C[C@H](NC(=O)CCC(F)(F)F)NC(=O)c1ccc(/C=C/C(c2cc(Cl)c(Cl)c(Cl)c2)C(F)(F)F)cc1C(F)(F)F (stereo partly drawn) [Compound F1, 4-((E)-4,4,4-Trifluoro-3-(3,4,5-trichlorophenyl)but-1-en-1-yl)-N—((R)-1-(4,4,4-trifluorobutanamido)ethyl)-2-(trifluoromethyl)benzamide] | 50 to 100 | 50 to 100 | 100 | 100 | 100 | 97 | 100 | 100
O=C(CCC(F)(F)F)NCNC(=O)c1ccc(/C=C/C(c2cc(Cl)c(Cl)c(Cl)c2)C(F)(F)F)cc1C(F)(F)F (stereo not drawn) [Compound F13, (E)-4-(4,4,4-Trifluoro-3-(3,4,5-trichlorophenyl)but-1-en-1-yl)-N-((4,4,4-trifluorobutanamido)methyl)-2-(trifluoromethyl)benzamide] | 50 to 100 | 50 to 100 |  |  |  |  |  | 
C[C@H](NC(=O)CC(F)(F)F)NC(=O)c1ccc(/C=C/C(c2cc(Cl)c(F)c(Cl)c2)C(F)(F)F)cc1C(F)(F)F (stereo partly drawn) [Compound P1, 4-((E)-3-(3,5-Dichloro-4-fluorophenyl)-4,4,4-trifluorobut-1-en-1-yl)-2-(trifluoromethyl)-N—((R)-1-(3,3,3-trifluoropropanamido)ethyl)benzamide] | 50 to 100 | 50 to 100 |  |  |  |  |  | 
Cc1cc(/C=C/C(c2cc(Cl)c(Br)c(Cl)c2)C(F)(F)F)ccc1C(=O)N[C@H](C)NC(=O)CC(F)(F)F (stereo partly drawn) [Compound P8, 4-((E)-3-(4-Bromo-3,5-dichlorophenyl)-4,4,4-trifluorobut-1-en-1-yl)-2-methyl-N—((R)-1-(3,3,3-trifluoropropanamido)ethyl)benzamide] | 50 to 100 | 50 to 100 |  |  |  |  |  | 
C[C@H](NC(=O)CCC(F)(F)F)NC(=O)c1ccc(/C=C/C(c2cc(Cl)c(F)c(Cl)c2)C(F)(F)F)cc1C(F)(F)F (stereo partly drawn) [Compound P9, 4-((E)-3-(3,5-Dichloro-4-fluorophenyl)-4,4,4-trifluorobut-1-en-1-yl)-N—((R)-1-(4,4,4-trifluorobutanamido)ethyl)-2-(trifluoromethyl)benzamide] | 50 to 100 | 50 to 100 |  |  |  |  |  | 
Cc1cc(/C=C/C(c2cc(Br)cc(Br)c2)C(F)(F)F)ccc1C(=O)N[C@H](C)NC(=O)CCC(F)(F)F (stereo partly drawn) [Compound P15, 4-((E)-3-(3,5-Dibromophenyl)-4,4,4-trifluorobut-1-en-1-yl)-2-methyl-N—((R)-1-(4,4,4-trifluorobutanamido)ethyl)benzamide] | 50 to 100 | 50 to 100 |  |  |  |  |  | 
Cc1cc(/C=C/C(c2cc(Cl)c(Br)c(Cl)c2)C(F)(F)F)ccc1C(=O)N[C@H](C)NC(=O)CCC(F)(F)F (stereo partly drawn) [Compound P16, 4-((E)-3-(4-Bromo-3,5-dichlorophenyl)-4,4,4-trifluorobut-1-en-1-yl)-2-methyl-N—((R)-1-(4,4,4-trifluorobutanamido)ethyl)benzamide] | 50 to 100 | 50 to 100 |  |  |  |  |  | 
Cc1cc(/C=C/C(c2cc(Cl)c(Cl)c(Cl)c2)C(F)(F)F)ccc1C(=O)N[C@H](C)NC(=O)CC(F)(F)F (stereo partly drawn) [Compound P22, 2-Methyl-4-((E)-4,4,4-trifluoro-3-(3,4,5-trichlorophenyl)but-1-en-1-yl)-N—((R)-1-(3,3,3-trifluoropropanamido)ethyl)benzamide] | 50 to 100 | 50 to 100 | 25 | 100 | 100 | 63 | 100 | 100
Cc1cc(/C=C/C(c2cc(Cl)c(Cl)c(Cl)c2)C(F)(F)F)ccc1C(=O)N[C@H](C)NC(=O)CCC(F)(F)F (stereo partly drawn) [Compound P25, 2-Methyl-4-((E)-4,4,4-trifluoro-3-(3,4,5-trichlorophenyl)but-1-en-1-yl)-N—((R)-1-(4,4,4-trifluorobutanamido)ethyl)benzamide] | 50 to 100 | 50 to 100 | 100 | 100 | 100 | 100 | 100 | 100
CC(CC(F)(F)F)C(=O)N[C@@H](C)NC(=O)c1ccc(/C=C/C(c2cc(Cl)c(Cl)c(Cl)c2)C(F)(F)F)cc1C(F)(F)F (stereo partly drawn) [Compound P30, N—((R)-1-(4,4,4-Trifluoro-2-methylbutanamido)ethyl)-4-((E)-4,4,4-trifluoro-3-(3,4,5-trichlorophenyl)but-1-en-1-yl)-2-(trifluoromethyl)benzamide] | 50 to 100 | 50 to 100 |  |  |  |  |  | 
C[C@H](NC(=O)CS(C)(=O)=O)NC(=O)c1ccc(/C=C/C(c2cc(Cl)c(Cl)c(Cl)c2)C(F)(F)F)cc1C(F)(F)F (stereo partly drawn) [Compound P43, N—((S)-1-(2-(Methylsulfonyl)acetamido)ethyl)-4-((E)-4,4,4-trifluoro-3-(3,4,5-trichlorophenyl)but-1-en-1-yl)-2-(trifluoromethyl)benzamide] | 50 to 100 | 50 to 100 |  |  |  |  |  | 
C[C@H](NC(=O)CCS(C)(=O)=O)NC(=O)c1ccc(/C=C/C(c2cc(Cl)c(Cl)c(Cl)c2)C(F)(F)F)cc1C(F)(F)F (stereo partly drawn) [Compound P47, N—((R)-1-(3-(methylsulfonyl)propanamido)ethyl)-4-((E)-4,4,4-trifluoro-3-(3,4,5-trichlorophenyl)but-1-en-1-yl)-2-(trifluoromethyl)benzamide] | 50 to 100 | 50 to 100 |  |  |  |  |  | 
CSCCC(=O)N[C@@H](C)NC(=O)c1ccc(/C=C/C(c2cc(Cl)c(Cl)c(Cl)c2)C(F)(F)F)cc1C(F)(F)F (stereo partly drawn) [Compound P53, N—((R)-1-(3-(Methylthio)propanamido)ethyl)-4-((E)-4,4,4-trifluoro-3-(3,4,5-trichlorophenyl)but-1-en-1-yl)-2-(trifluoromethyl)benzamide] | 50 to 100 | 50 to 100 |  |  |  |  |  | 
CSCC(=O)N[C@@H](C)NC(=O)c1ccc(/C=C/C(c2cc(Cl)c(Cl)c(Cl)c2)C(F)(F)F)cc1C(F)(F)F (stereo partly drawn) [Compound P54, N—((S)-1-(2-(Methylthio)acetamido)ethyl)-4-((E)-4,4,4-trifluoro-3-(3,4,5-trichlorophenyl)but-1-en-1-yl)-2-(trifluoromethyl)benzamide] | 50 to 100 | 50 to 100 |  |  |  |  |  | 
C[C@H](NC(=O)CCC(F)(F)F)NC(=O)c1ccc(/C=C/C(c2cc(Cl)c(Cl)c(Cl)c2)C(F)(F)F)cc1 (stereo partly drawn) [FC1, 4-((E)-4,4,4-Trifluoro-3-(3,4,5-trichlorophenyl)but-1-en-1-yl)-N—((R)-1-(4,4,4-trifluorobutanamido)ethyl)benzamide] |  |  | 0 | 0 | 13 | 0 | 0 | 71
C[C@H](NC(=O)CC(F)(F)F)NC(=O)c1ccc(/C=C/C(c2cc(Cl)c(Cl)c(Cl)c2)C(F)(F)F)cc1 (stereo partly drawn) [FC2, 4-((E)-4,4,4-Trifluoro-3-(3,4,5-trichlorophenyl)but-1-en-1-yl)-N—((R)-1-(3,3,3-trifluoropropanamido)ethyl)benzamide] |  |  | 0 | 0 | 0 | 0 | 0 | 0
